# The supplement of paper PMC10307832
# Key:
# Assay in all cases: relative viability (nuclei count vs DMSO), 5 days (fraction); higher = more cells survive
# HCC-15 = test system: HCC-15
# Method in brief: (§1)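 The day after seeding in 1536-well plates, lung cancer cell lines were treated by pin tool with a single drug, or with a fixed anchor-drug dose together with five library-drug doses (not always all listed) in √10 steps. After 5 days, a combined fix-and-stain solution (final 0.05% Triton X-100, 1% formaldehyde, 1 ug/ml Hoechst) was added. Nuclei counted on 4× images gave relative viability as treated counts over vehicle counts, reported as the median of duplicate plates.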
# SW 1573 = test system: SW 1573
# Method in brief: as §1
# RERF-LC-KJ = test system: RERF-LC-KJ
# Method in brief: as §1
# COR-L23 = test system: COR-L23
# Method in brief: as §1
# LCLC-97TM1 = test system: LCLC-97TM1
# Method in brief: as §1
# NCI-H2009 = test system: NCI-H2009
# Method in brief: as §1
# LCLC-103H = test system: LCLC-103H
# Method in brief: as §1
# HARA = test system: HARA
# Method in brief: as §1
# 201T = test system: 201T
# Method in brief: as §1
# NCI-H2023 = test system: NCI-H2023
# Method in brief: as §1
# NCI-H2126 = test system: NCI-H2126
# Method in brief: as §1
# LOU-NH91 = test system: LOU-NH91
# Method in brief: as §1
# NCI-H1993 = test system: NCI-H1993
# Method in brief: as §1
# NCI-H460 = test system: NCI-H460
# Method in brief: as §1
# A-427 = test system: A-427
# Method in brief: as §1
# HCC-366 = test system: HCC-366
# Method in brief: as §1
# HCC-78 = test system: HCC-78
# Method in brief: as §1
# ChaGo-K-1 = test system: ChaGo-K-1
# Method in brief: as §1
# NCI-H1734 = test system: NCI-H1734
# Method in brief: as §1
# NCI-H650 = test system: NCI-H650
# Method in brief: as §1
# NCI-H1650 = test system: NCI-H1650
# Method in brief: as §1
# HCC-44 = test system: HCC-44
# Method in brief: as §1
# NCI-H441 = test system: NCI-H441
# Method in brief: as §1
smiles,measurement,setting,value
O=C(O)CCCCC(CCSCc1ccccc1)SCc1ccccc1 (centres undefined) [CPI-613] + Nc1ncn([C@H]2C[C@H](O)[C@@H](CO)O2)c(=O)n1 [Decitabine] (partner 2 µM),relative viability,HCC-15; first compound 5 µM,0.594
same,relative viability,HCC-15; first compound 15.81 µM,0.592
same,relative viability,HCC-15; first compound 50 µM,0.547
same,relative viability,HCC-15; first compound 158.11 µM,0.265
same,relative viability,HCC-15; first compound 500 µM,0.0057
same,relative viability,SW 1573; first compound 5 µM,0.437
same,relative viability,SW 1573; first compound 15.81 µM,0.399
same,relative viability,SW 1573; first compound 50 µM,0.498
same,relative viability,SW 1573; first compound 158.11 µM,0.207
same,relative viability,SW 1573; first compound 500 µM,0.0549
same,relative viability,RERF-LC-KJ; first compound 5 µM,0.663
same,relative viability,RERF-LC-KJ; first compound 15.81 µM,0.619
same,relative viability,RERF-LC-KJ; first compound 50 µM,0.643
same,relative viability,RERF-LC-KJ; first compound 158.11 µM,0.272
same,relative viability,RERF-LC-KJ; first compound 500 µM,0.199
same,relative viability,COR-L23; first compound 5 µM,0.494
same,relative viability,COR-L23; first compound 15.81 µM,0.367
same,relative viability,COR-L23; first compound 50 µM,0.469
same,relative viability,COR-L23; first compound 158.11 µM,0.229
same,relative viability,COR-L23; first compound 500 µM,0.0175
same,relative viability,LCLC-97TM1; first compound 5 µM,0.251
same,relative viability,LCLC-97TM1; first compound 15.81 µM,0.213
same,relative viability,LCLC-97TM1; first compound 50 µM,0.261
same,relative viability,LCLC-97TM1; first compound 158.11 µM,0.0572
same,relative viability,LCLC-97TM1; first compound 500 µM,0.051
same,relative viability,NCI-H2009; first compound 5 µM,0.393
same,relative viability,NCI-H2009; first compound 15.81 µM,0.397
same,relative viability,NCI-H2009; first compound 50 µM,0.385
same,relative viability,NCI-H2009; first compound 158.11 µM,0.228
same,relative viability,NCI-H2009; first compound 500 µM,0.0406
same,relative viability,LCLC-103H; first compound 5 µM,0.753
same,relative viability,LCLC-103H; first compound 15.81 µM,0.77
same,relative viability,LCLC-103H; first compound 50 µM,0.714
same,relative viability,LCLC-103H; first compound 158.11 µM,0.29
same,relative viability,LCLC-103H; first compound 500 µM,0.288
same,relative viability,HARA; first compound 5 µM,0.494
same,relative viability,HARA; first compound 15.81 µM,0.467
same,relative viability,HARA; first compound 50 µM,0.575
same,relative viability,HARA; first compound 158.11 µM,0.289
same,relative viability,HARA; first compound 500 µM,0.111
same,relative viability,201T; first compound 5 µM,0.848
same,relative viability,201T; first compound 15.81 µM,0.778
same,relative viability,201T; first compound 50 µM,0.841
same,relative viability,201T; first compound 158.11 µM,0.194
same,relative viability,201T; first compound 500 µM,0.211
same,relative viability,NCI-H2023; first compound 5 µM,0.215
same,relative viability,NCI-H2023; first compound 15.81 µM,0.257
same,relative viability,NCI-H2023; first compound 50 µM,0.244
same,relative viability,NCI-H2023; first compound 158.11 µM,0.0918
same,relative viability,NCI-H2023; first compound 500 µM,0.0147
same,relative viability,NCI-H2126; first compound 5 µM,0.536
same,relative viability,NCI-H2126; first compound 15.81 µM,0.578
same,relative viability,NCI-H2126; first compound 50 µM,0.599
same,relative viability,NCI-H2126; first compound 158.11 µM,0.188
same,relative viability,NCI-H2126; first compound 500 µM,0.132
same,relative viability,LOU-NH91; first compound 5 µM,0.794
same,relative viability,LOU-NH91; first compound 15.81 µM,0.783
same,relative viability,LOU-NH91; first compound 50 µM,0.819
same,relative viability,LOU-NH91; first compound 158.11 µM,0.765
same,relative viability,LOU-NH91; first compound 500 µM,0.683
same,relative viability,NCI-H1993; first compound 5 µM,0.643
same,relative viability,NCI-H1993; first compound 15.81 µM,0.56
same,relative viability,NCI-H1993; first compound 50 µM,0.679
same,relative viability,NCI-H1993; first compound 158.11 µM,0.61
same,relative viability,NCI-H1993; first compound 500 µM,0.327
same,relative viability,NCI-H460; first compound 5 µM,0.513
same,relative viability,NCI-H460; first compound 15.81 µM,0.396
same,relative viability,NCI-H460; first compound 50 µM,0.456
same,relative viability,NCI-H460; first compound 158.11 µM,0.115
same,relative viability,NCI-H460; first compound 500 µM,0.0075
same,relative viability,A-427; first compound 5 µM,0.55
same,relative viability,A-427; first compound 15.81 µM,0.551
same,relative viability,A-427; first compound 50 µM,0.582
same,relative viability,A-427; first compound 158.11 µM,0.495
same,relative viability,A-427; first compound 500 µM,0.435
same,relative viability,HCC-366; first compound 5 µM,0.339
same,relative viability,HCC-366; first compound 15.81 µM,0.31
same,relative viability,HCC-366; first compound 50 µM,0.381
same,relative viability,HCC-366; first compound 158.11 µM,0.202
same,relative viability,HCC-366; first compound 500 µM,0.0146
same,relative viability,HCC-78; first compound 15.81 µM,0.709
same,relative viability,HCC-78; first compound 50 µM,0.836
same,relative viability,HCC-78; first compound 158.11 µM,0.691
same,relative viability,HCC-78; first compound 500 µM,0.742
same,relative viability,ChaGo-K-1; first compound 5 µM,0.489
same,relative viability,ChaGo-K-1; first compound 15.81 µM,0.517
same,relative viability,ChaGo-K-1; first compound 50 µM,0.514
same,relative viability,ChaGo-K-1; first compound 158.11 µM,0.274
same,relative viability,ChaGo-K-1; first compound 500 µM,0.161
same,relative viability,NCI-H1734; first compound 5 µM,0.488
same,relative viability,NCI-H1734; first compound 15.81 µM,0.46
same,relative viability,NCI-H1734; first compound 50 µM,0.437
same,relative viability,NCI-H1734; first compound 158.11 µM,0.409
same,relative viability,NCI-H1734; first compound 500 µM,0.111
same,relative viability,NCI-H650; first compound 5 µM,0.314
same,relative viability,NCI-H650; first compound 15.81 µM,0.295
same,relative viability,NCI-H650; first compound 50 µM,0.299
same,relative viability,NCI-H650; first compound 158.11 µM,0.321
same,relative viability,NCI-H650; first compound 500 µM,0.288
same,relative viability,NCI-H1650; first compound 5 µM,0.475
same,relative viability,NCI-H1650; first compound 15.81 µM,0.443
same,relative viability,NCI-H1650; first compound 50 µM,0.332
same,relative viability,NCI-H1650; first compound 158.11 µM,0.169
same,relative viability,NCI-H1650; first compound 500 µM,0.0363
same,relative viability,HCC-44; first compound 5 µM,0.877
same,relative viability,HCC-44; first compound 15.81 µM,1.01
same,relative viability,HCC-44; first compound 50 µM,0.922
same,relative viability,HCC-44; first compound 158.11 µM,0.828
same,relative viability,HCC-44; first compound 500 µM,0.779
same,relative viability,NCI-H441; first compound 5 µM,0.261
same,relative viability,NCI-H441; first compound 15.81 µM,0.253
same,relative viability,NCI-H441; first compound 50 µM,0.231
same,relative viability,NCI-H441; first compound 158.11 µM,0.148
same,relative viability,NCI-H441; first compound 500 µM,0.0077
